Source: article PMC11555717 (Cancer Medicine, 2024)
Square brackets hold non-standard residues; d marks the D form. Peptide text beside a SMILES is read from it. * marks the point of attachment. Dolaproine = CO[C@@H]([C@@H]1CCCN1)[C@@H](C)C(=O)O; Dil = CC[C@H](C)[C@H](NC)[C@@H](CC(=O)O)OC; X1 = C[C@@H](N*)[C@@H](O)c1ccccc1; NMeV = CN[C@H](C(=O)O)C(C)C

Experiments:
[1] = EV-203 pharmacokinetics of ADC, TAb and free MMAE in serum or plasma; format: in vivo, human; conditions: for Time of peak free MMAE concentration postinfusion: after end of enfortumab vedotin infusion
Experimental: In the PK cohort (i.e., PK analysis set), intensive PK sampling was performed wherein blood samples for analysis of ADC, total antibody (TAb), and free (unconjugated) MMAE were collected at prespecified time points. […] Blood samples for antitherapeutic antibodies (ATAs) were collected predose on Day 1 of cycles 1 to 4, 6, 8, 10, and within 30–37 days after the last study dose. Validated assays were used to measure concentrations of ADC, TAb, and free MMAE in serum or plasma and to assess ATA levels.
All patients who received any amount of study drug were included in the primary analyses of efficacy endpoints and safety analyses. The PK analyses included data from patients in the PK cohort who received at least 3 of 4 doses of the study drug through cycle 2 Day 1 and had at least five blood samples collected and assayed for measurements of ADC, TAb, or free MMAE concentrations to determine at least one PK parameter.

[2] = system: patients with HER2-positive (IHC2+ or 3+) unresectable locally advanced or mUC; parameters: method as in earlier work; conditions: pooled two phase 2 studies, combined N = 107; 95% CI 40.6%–60.3%; cited from earlier work
[3] = cycle 1 Day 1, Non-PK cohort, mean (SD)
[4] = cycle 1 Day 1, PK cohort, mean (SD)
[5] = cycle 1 Day 8, Non-PK cohort, mean (SD)
[6] = cycle 1 Day 8, PK cohort, mean (SD)
[7] = cycle 1 Day 15, Non-PK cohort, mean (SD)
[8] = cycle 1 Day 15, PK cohort, mean (SD)
[9] = plasma, Cycle 1 Day 15, third to first dose, mean (SD)

With CC[C@H](C)[C@@H]([C@@H](CC(=O)N1CCC[C@H]1[C@H](OC)[C@@H](C)C(=O)N[C@H](C)[C@@H](O)c1ccccc1)OC)N(C)C(=O)[C@@H](NC(=O)[C@@H](NC)C(C)C)C(C)C [Free MMAE, monomethyl auristatin E] (H-[NMeV]V[Dil][Dolaproine]-X1) the “Plasma concentration at end of infusion” value [1, 3] was 376 (241) [23] pg/mL, the “Plasma concentration at end of infusion” value [1, 4] was 357 (154) [13] pg/mL and the “Plasma concentration at end of infusion” value [1, 5] was 2720 (1490) [17] pg/mL. For the same molecule, the “Plasma concentration at end of infusion” value [1, 6] was 1680 (1290) [12] pg/mL, the “Plasma concentration at end of infusion” value [1, 7] was 3350 (2600) [11] pg/mL and the “Plasma concentration at end of infusion” value [1, 8] was 2110 (1680) [10] pg/mL. The “Median t max (range)” value ([1]; plasma, Cycle 1 Day 1) was 2.00 (1.87–2.93) days, the “AUC0–7d” value ([1]; plasma, Cycle 1 Day 1, after enfortumab vedotin 1.25 mg/kg IV, mean (SD)) was 16.9 (9.2) day ng/mL and the C max ([1]; plasma, Cycle 1 Day 1, mean (SD)) was 3.3 (1.74) ng/mL. The “Median t max (range)” value ([1]; plasma, Cycle 1 Day 15) was 1.93 (0.86–2.92) days, the “AUC0–7d” value ([1]; plasma, Cycle 1 Day 15, after enfortumab vedotin 1.25 mg/kg IV, mean (SD)) was 23.3 (16.4) day ng/mL and the C max ([1]; plasma, Cycle 1 Day 15, mean (SD)) was 4.5 (3.58) ng/mL. For the same molecule, the “R ac (AUC0–7d), accumulation ratio” value [1, 9] was 1.32 (0.486), the “R ac (Cmax), accumulation ratio” value [1, 9] was 1.28 (0.499) and the “Time of peak free MMAE concentration postinfusion” value ([1]; plasma, listed as MMAE) was “approximately 2 days”. For the same molecule, the “Time of peak free MMAE concentration postinfusion” value ([1]; plasma, listed as free MMAE) was 2 to 3 days and the “Mean accumulation ratios (third to first dose) for maximum concentration and AUC0–7d” value ([1]; range over ADC, TAb and free MMAE, repeat dosing) was 1.03 to 1.32.

In the case of “TAb: total antibody analyte measured in serum after enfortumab vedotin dosing”, the “Serum concentration at end of infusion” value [1, 3] is reported as 29,100 (5050) [23] ng/mL, the “Serum concentration at end of infusion” value [1, 4] is reported as 30,800 (5730) [13] ng/mL and the “Serum concentration at end of infusion” value [1, 5] is reported as 29,900 (5450) [17] ng/mL. The “Serum concentration at end of infusion” value [1, 6] was 34,300 (6640) [12] ng/mL, the “Serum concentration at end of infusion” value [1, 7] was 27,600 (6210) [11] ng/mL and the “Serum concentration at end of infusion” value [1, 8] was 33,600 (5450) [10] ng/mL. For the same molecule, the “AUC0–7d” value ([1]; serum, Cycle 1 Day 1, PK cohort, 1.25 mg/kg IV, mean (SD)) was 77.4 (17.3) day μg/mL, the C max ([1]; serum, Cycle 1 Day 1, PK cohort, mean (SD)) was 31.7 (5.73) μg/mL and the “AUC0–7d” value ([1]; serum, Cycle 1 Day 15, PK cohort, 1.25 mg/kg IV, mean (SD)) was 94.7 (15.7) day μg/mL. For the same molecule, the C max ([1]; serum, Cycle 1 Day 15, PK cohort, mean (SD)) was 34.4 (4.64) μg/mL and the “Time of peak serum concentration” value ([1]; serum, PK cohort cycle 1) was “at the end of the enfortumab vedotin infusion”.

B1: disitamab vedotin (conjugate, chains of the INN, looked up)
VH: EVQLVQSGAEVKKPGATVKISCKVSGYTFTDYYIHWVQQAPGKGLEWMGRVNPDHGDSYYNQKFKDKATITADKSTDTAYMELSSLRSEDTAVYFCARNYLFDHWGQGTLVTVSS
VL: DIQMTQSPSSVSASVGDRVTITCKASQDVGTAVAWYQQKPGKAPKLLIYWASIRHTGVPSRFSGSGSGTDFTLTISSLQPEDFATYYCHQFATYTFGGGTKVEIK
modifications: vedotin (MMAE) payload
For B1, the ORR [2] is given as 50.5%.
